Patent US10696615B2, “Prenylated hydroxystilbenes” (The University of Sydney, priority 2011, dated 2020)

What was measured:
Assay type in all cases: cell-based, human
HL-60 (TB) = test: NCI in vitro cancer screen, Leukemia; conditions: HL-60(TB), unit not printed (M)
HCT-15 = test: NCI in vitro cancer screen, Colon Cancer; conditions: HCT-15, unit not printed (M)
COLO 205 = test: NCI in vitro cancer screen, Colon Cancer; conditions: COLO, unit not printed (M)
SR = test: NCI in vitro cancer screen, Leukemia; conditions: unit not printed (M)
[1] = tested on: MDA-MB-231 (MDA-MB-231/ATCC); test: NCI in vitro cancer screen, Breast Cancer; conditions: MDA-MB-231/ATCC, unit not printed (M)
M14 = test: NCI in vitro cancer screen, Melanoma; conditions: M14, unit not printed (M)
MDA-MB-435 = test: NCI in vitro cancer screen, Melanoma; conditions: MDA-MB-435, unit not printed (M)
SK-OV-3 = test: NCI in vitro cancer screen, Ovarian Cancer; conditions: SK-OV-3, unit not printed (M)
SN12C = test: NCI in vitro cancer screen, Renal Cancer; conditions: unit not printed (M)
PC-3 = test: NCI in vitro cancer screen, Prostate Cancer; conditions: PC-3, unit not printed (M)
NCI-H460 = test: NCI in vitro cancer screen, Non-Small Cell Lung Cancer; conditions: NCI-H460, unit not printed (M)
MOLT-4 = test: NCI in vitro cancer screen, Leukemia; conditions: MOLT, unit not printed (M)
UO-31 = test: NCI in vitro cancer screen, Renal Cancer; conditions: UO-31, unit not printed (M)
ADR-RES (NCI/ADR-RES) = test: NCI in vitro cancer screen, Ovarian Cancer; conditions: NCI/ADR-RES, unit not printed (M)
A498 = test: NCI in vitro cancer screen, Renal Cancer; conditions: A498, unit not printed (M)
MALME-3M = test: NCI in vitro cancer screen, Melanoma; conditions: MALME-3M, unit not printed (M)
UACC-62 = test: NCI in vitro cancer screen, Melanoma; conditions: UACC-62, unit not printed (M)
T-47D = test: NCI in vitro cancer screen, Breast Cancer; conditions: unit not printed (M)
RXF-393 = test: NCI in vitro cancer screen, Renal Cancer; conditions: Homo sapiens, RXF 393, unit not printed (M)
ACHN = test: NCI in vitro cancer screen, Renal Cancer; conditions: unit not printed (M)
LOX IMVI = test: NCI in vitro cancer screen, Melanoma; conditions: unit not printed (M)
K-562 = test: NCI in vitro cancer screen, Leukemia; conditions: K-562, unit not printed (M)
A549/ATCC = test: NCI in vitro cancer screen, Non-Small Cell Lung Cancer; conditions: unit not printed (M)
HCC-2998 = test: NCI in vitro cancer screen, Colon Cancer; conditions: HCC-2998, unit not printed (M)
786-0 = test: NCI in vitro cancer screen, Renal Cancer; conditions: 786-0, unit not printed (M)
NCI-H322M = test: NCI in vitro cancer screen, Non-Small Cell Lung Cancer; conditions: unit not printed (M)
SK-MEL-2 = test: NCI in vitro cancer screen, Melanoma; conditions: SK-MEL-2, unit not printed (M)
SNB-75 = test: NCI in vitro cancer screen, CNS Cancer; conditions: SNB-75, unit not printed (M)
NCI-H522 = test: NCI in vitro cancer screen, Non-Small Cell Lung Cancer; conditions: NCI-H522, unit not printed (M)
RPMI-8226 = test: NCI in vitro cancer screen, Leukemia; conditions: RPMI, unit not printed (M)
SF-295 = test: NCI in vitro cancer screen, CNS Cancer; conditions: SF-295, unit not printed (M)
[2] = Homo sapiens, read-out: LC50 (the source's name)

**Q.** Which TGI (HL-60 (TB)) does the source give for `COc1cc(/C=C/c2cc(O)cc(O)c2CC=C(C)C)ccc1O` [USYDS10, (E)-2-(3-methyl-2-buten-1-yl)-3,4′,5-trihydroxy-3′-methoxystilbene] here?
**A.** 1.88E−6

**Q.** What about the GI50 (HL-60 (TB); Homo sapiens) of the same compound?
**A.** 327 nM

**Q.** And the CC50 (HL-60 (TB); [2])?
**A.** > 100000 nM

**Q.** And the TGI (HCT-15)?
**A.** 2.09E−5

**Q.** What about the GI50 (HCT-15; Homo sapiens) of the same compound?
**A.** 498 nM

**Q.** What about the CC50 (HCT-15; [2]) of the same compound?
**A.** > 100000 nM

**Q.** And the TGI (COLO 205)?
**A.** 2.97E−5

**Q.** What about the GI50 (COLO 205; Homo sapiens, COLO 205) of the same compound?
**A.** 15300 nM

**Q.** And the CC50 (COLO 205; Homo sapiens, COLO 205, read-out: LC50 (the source's name))?
**A.** 57700 nM

**Q.** And the GI50 (SR; Homo sapiens)?
**A.** 188 nM

**Q.** What about the CC50 (SR; [2]) of the same compound?
**A.** > 100000 nM

**Q.** What about the TGI (SR) of the same compound?
**A.** >1.00E−4

**Q.** What about the GI50 ([1]; Homo sapiens) of the same compound?
**A.** 642 nM

**Q.** What about the CC50 [1, 2] of the same compound?
**A.** > 100000 nM

**Q.** And the TGI [1]?
**A.** 3.20E−5

**Q.** What about the GI50 (M14; Homo sapiens) of the same compound?
**A.** 284 nM

**Q.** And the CC50 (M14; [2])?
**A.** 41600 nM

**Q.** And the TGI (M14)?
**A.** 1.42E−5

**Q.** What about the GI50 (MDA-MB-435; Homo sapiens) of the same compound?
**A.** 38.5 nM

**Q.** And the CC50 (MDA-MB-435; [2])?
**A.** > 100000 nM

**Q.** And the TGI (MDA-MB-435)?
**A.** 2.56E−7

**Q.** What about the GI50 (SK-OV-3; Homo sapiens) of the same compound?
**A.** 422 nM

**Q.** What about the CC50 (SK-OV-3; [2]) of the same compound?
**A.** 34200 nM

**Q.** And the TGI (SK-OV-3)?
**A.** 1.14E−5

**Q.** And the GI50 (SN12C; Homo sapiens)?
**A.** 671 nM

**Q.** What about the CC50 (SN12C; [2]) of the same compound?
**A.** > 100000 nM

**Q.** And the TGI (SN12C)?
**A.** 2.98E−5

**Q.** What about the GI50 (PC-3; Homo sapiens) of the same compound?
**A.** 2270 nM

**Q.** And the CC50 (PC-3; [2])?
**A.** > 100000 nM

**Q.** What about the TGI (PC-3) of the same compound?
**A.** 3.12E−5

**Q.** And the GI50 (NCI-H460; Homo sapiens)?
**A.** 381 nM

**Q.** And the CC50 (NCI-H460; [2])?
**A.** 66100 nM

**Q.** And the TGI (NCI-H460)?
**A.** 1.29E−5

**Q.** And the GI50 (MOLT-4; Homo sapiens, MOLT-4)?
**A.** 596 nM

**Q.** What about the CC50 (MOLT-4; Homo sapiens, MOLT-4, read-out: LC50 (the source's name)) of the same compound?
**A.** > 100000 nM

**Q.** What about the TGI (MOLT-4) of the same compound?
**A.** 1.99E−5

**Q.** And the GI50 (UO-31; Homo sapiens)?
**A.** 878 nM

**Q.** And the CC50 (UO-31; [2])?
**A.** 95200 nM

**Q.** And the TGI (UO-31)?
**A.** 2.17E−5

**Q.** And the GI50 (ADR-RES (NCI/ADR-RES); Homo sapiens)?
**A.** 183 nM

**Q.** What about the CC50 (ADR-RES (NCI/ADR-RES); [2]) of the same compound?
**A.** > 100000 nM

**Q.** What about the TGI (ADR-RES (NCI/ADR-RES)) of the same compound?
**A.** 8.04E−7

**Q.** What about the TGI (A498) of the same compound?
**A.** 7.85E−6

**Q.** What about the GI50 (A498; Homo sapiens) of the same compound?
**A.** 2170 nM

**Q.** What about the CC50 (A498; [2]) of the same compound?
**A.** 34800 nM

**Q.** And the GI50 (MALME-3M; Homo sapiens)?
**A.** 18700 nM

**Q.** And the CC50 (MALME-3M; [2])?
**A.** 92900 nM

**Q.** What about the TGI (MALME-3M) of the same compound?
**A.** 4.17E−5

**Q.** What about the GI50 (UACC-62; Homo sapiens) of the same compound?
**A.** 521 nM

**Q.** And the CC50 (UACC-62; [2])?
**A.** 42800 nM

**Q.** What about the TGI (UACC-62) of the same compound?
**A.** 1.55E−5

**Q.** What about the GI50 (T-47D; Homo sapiens, T47D) of the same compound?
**A.** 1470 nM

**Q.** And the CC50 (T-47D; Homo sapiens, T47D, read-out: LC50 (the source's name))?
**A.** > 100000 nM

**Q.** What about the TGI (T-47D) of the same compound?
**A.** 2.47E−5

**Q.** What about the GI50 (RXF-393) of the same compound?
**A.** 221 nM

**Q.** What about the CC50 (RXF-393; read-out: LC50 (the source's name)) of the same compound?
**A.** 37600 nM

**Q.** And the GI50 (ACHN; Homo sapiens)?
**A.** 903 nM

**Q.** And the CC50 (ACHN; [2])?
**A.** > 100000 nM

**Q.** And the TGI (ACHN)?
**A.** 3.79E−5

**Q.** And the GI50 (LOX IMVI; Homo sapiens)?
**A.** 572 nM

**Q.** What about the CC50 (LOX IMVI; [2]) of the same compound?
**A.** 80000 nM

**Q.** What about the TGI (LOX IMVI) of the same compound?
**A.** 1.93E−5

**Q.** What about the GI50 (K-562; Homo sapiens, K562) of the same compound?
**A.** 386 nM

**Q.** And the CC50 (K-562; Homo sapiens, K562, read-out: LC50 (the source's name))?
**A.** > 100000 nM

**Q.** And the TGI (K-562)?
**A.** 3.17E−5

**Q.** What about the GI50 (A549/ATCC; Homo sapiens) of the same compound?
**A.** 660 nM

**Q.** What about the CC50 (A549/ATCC; [2]) of the same compound?
**A.** > 100000 nM

**Q.** And the TGI (A549/ATCC)?
**A.** 2.25E−5

**Q.** And the TGI (HCC-2998)?
**A.** 1.19E−5

**Q.** And the GI50 (HCC-2998; Homo sapiens)?
**A.** 1810 nM

**Q.** And the CC50 (HCC-2998; [2])?
**A.** 39800 nM

**Q.** What about the TGI (786-0) of the same compound?
**A.** 2.01E−5

**Q.** What about the GI50 (786-0; Homo sapiens) of the same compound?
**A.** 681 nM

**Q.** And the LC50 (50% net cell kill) (786-0; Homo sapiens)?
**A.** 74500 nM

**Q.** What about the GI50 (NCI-H322M; Homo sapiens) of the same compound?
**A.** 11800 nM

**Q.** What about the LC50 (50% lethal concentration) (NCI-H322M; Homo sapiens) of the same compound?
**A.** 83700 nM

**Q.** And the TGI (NCI-H322M)?
**A.** 3.14E−5

**Q.** And the GI50 (SK-MEL-2; Homo sapiens)?
**A.** 576 nM

**Q.** What about the LC50 (SK-MEL-2; Homo sapiens) of the same compound?
**A.** > 100000 nM

**Q.** What about the TGI (SK-MEL-2) of the same compound?
**A.** 3.26E−5

**Q.** And the GI50 (SNB-75; Homo sapiens)?
**A.** 236 nM

**Q.** And the CC50 (SNB-75; [2])?
**A.** 36100 nM

**Q.** What about the TGI (SNB-75) of the same compound?
**A.** 1.22E−5

**Q.** And the GI50 (NCI-H522; Homo sapiens)?
**A.** 349 nM

**Q.** What about the CC50 (NCI-H522; [2]) of the same compound?
**A.** 42200 nM

**Q.** What about the TGI (NCI-H522) of the same compound?
**A.** 1.46E−5

**Q.** And the GI50 (RPMI-8226; Homo sapiens, RPMI-8226)?
**A.** 324 nM

**Q.** And the CC50 (RPMI-8226; Homo sapiens, RPMI-8226, read-out: LC50 (the source's name))?
**A.** > 100000 nM

**Q.** And the TGI (RPMI-8226)?
**A.** 1.63E−5

**Q.** What about the GI50 (SF-295; Homo sapiens) of the same compound?
**A.** 2010 nM

**Q.** What about the CC50 (SF-295; [2]) of the same compound?
**A.** > 100000 nM

**Q.** And the TGI (SF-295)?
**A.** 1.91E−5
